{"source": "patent US8378098B2", "about": "“Imidazol[1,2-α]quinoxalines and derivatives for the treatment of cancers” (Universite de Montpellier I, priority 2007, dated 2013)", "key": {"LS174T (colon cancer)": {"test_system": "LS174T (colon cancer)", "test": "in vitro cytotoxicity on LS174T colon cancer line", "type": "cell-based", "conditions": "Homo sapiens, Table 2, unit inferred", "from_the_text": "Several human carcinoma cell lines were used: • Lines A375, M4Be, RPMI7591 from human melanoma. • Line LS174T from colon carcinoma. • Line A 2780 from ovarian carcinoma. • The Raji line from B lymphoma. • Line MCF7 from breast carcinoma."}, "[1]": {"test": "determination of the lethal dose 50 (LD50) in the mouse", "type": "in vivo"}, "M4Be human melanoma": {"test_system": "M4Be human melanoma", "test": "anti-proliferative activity in vivo, M4Be human melanoma xenografted in athymic mice", "method": "FIG. 1: Effects of fotemustine (20 mg/kg once per week for 3 weeks) and EAPB0203 (20 mg/kg twice per week for 3 weeks) on tumour growth in athymic Swiss mice xenografted with M4Be human melanoma cell line.\nΔ, control; ▪, EAPB0203; ●, fotemustine. The data are the results of only one experiment carried out on six mice per group. The results are represented as mean±SEM.\nIn this study, data are presented relating to the activity of EAPB0203 on the volume of a type of human melanoma tumour model (M4Be lines), xenografted in athymic mice. This study required as a preliminary step several tests of grafts of human melanoma cell lines in athymic mice before establishing the adequate animal model. The in vivo study was performed following the in vitro experiments described previously.\nThe activity and specificity of EAPB0203 in vivo on tumour growth of human melanoma are evaluated by monitoring tumour development in mice carrying M4Be melanoma treated by administration of fotemustine and EAPB0203 at various doses.\nFor this study, 18 Swiss nude mice (3 groups of 6 mice) were used. M4Be cancer cells in suspension were injected subcutaneously into the right flank of each athymic Swiss nude female 7-week-old mouse weighing 20-22 g at the beginning of the protocol. The mice were then maintained in a sterile atmosphere and received aseptic food and water. The weight of the mouse and the growth of the tumour in three dimensions were recorded twice a week.\nA first group of 6 mice (reference) will receive fotemustine by intra-peritoneal route at a dose of 20 mg/kg once per week for 3 weeks, beginning 7 days after inoculation at the time when the tumour will be visible and palpable. A second group of 6 mice will receive EAPB0203 at the same dose of 20 mg/kg via intra-peritoneal route but twice per week (40 mg/kg per week). The third group (control) of 6 mice will receive only the administration carrier. Tumour volume is calculated by the following formula: length X width X height X 0.52, and is expressed as mean±SEM mm^3.\nFor fotemustine and EAPB0203, the sequence of administrations is a treatment of three weeks, then two weeks without treatment, and then a second treatment of three weeks."}, "[2]": {"test_system": "HTLV-I-positive human T lines (HuT-102 and C8166, and MT2)", "test": "cell growth of HTLV-I-positive human T lines (CellTiter 96, trypan blue exclusion)", "type": "cell-based", "conditions": "1 to 10 μM, 24-96 h", "method": "(§1) FIG. 2: HTLV-I-positive and HTLV-I-negative malignant human cell lines are sensitive to EAPB0203, but activated or inactivated normal T lymphocytes are resistant. Effects of EAPB0203 on the growth of human T lines not infected by HTLV-I (CEM, Jurkatt, Molt-4 and HuT-78), HTLV-I-positive human T lines (HuT-102 and C8166, and MT2), and normal lymphocytes at rest or activated by PHA. The activated normal PBMC were supplemented with 2% PHA. EAPB0203 was added at the concentrations indicated in mole/l for 24-96 h. Cell growth is analyzed with the “CellTiter 96®” nonradioactive cell growth kit. The results are expressed as a percentage of the control (0.1% DMSO) and represent the mean of the results obtained in three independent experiments.\n(§2) The in vitro activity of EAPB0203 on adult T-cell leukemia (ATL) transformed by retrovirus HTLV-I (HuT-102, MT2 . . . ) and malignant HTLV-I-negative T-cells (CEM, Jurkatt . . . ) was evaluated. Initially, the effect of EAPB0203 on cell growth of these lines was evaluated by two techniques, the nonradioactive “CellTiter 96®” cell growth kit and the trypan blue exclusion method."}, "[3]": {"test_system": "human T lines not infected by HTLV-I (CEM, Jurkatt, Molt-4 and HuT-78)", "test": "cell growth of human T lines not infected by HTLV-I (CellTiter 96, trypan blue exclusion)", "type": "cell-based", "conditions": "1 to 10 μM, 24-96 h", "method": "as §1, §2"}}, "note": "Entries after “also recorded” stand apart in the source; their conditions may differ.", "data": [{"compound": "CNc1nc2ccccc2n2c(CCc3ccccc3)cnc12", "note": "[EAPB0203, N-methyl-1-(2-phenylethyl)imidazo[1,2-a]quinoxalin-4-amine]", "values": [{"measurement": "IC50", "setting": "LS174T (colon cancer)", "value": "4.12 ± 0.67", "unit": "µM"}, {"measurement": "apparent toxicity after 48 h at the highest doses", "setting": "[1]", "value": "did not display any apparent toxicity"}, {"measurement": "LD50 at 48 h", "setting": "[1]; in vivo, doses 30, 300 and 450 mg/kg, 48 h", "value": "> 450", "unit": "mg/kg"}, {"measurement": "tolerance (weight, side effects)", "setting": "M4Be human melanoma; 20 mg/kg twice per week, intra-peritoneal, mice carrying M4Be melanoma", "value": "well tolerated without loss of weight or apparent side effects"}, {"measurement": "tumour growth compared to control mice and fotemustine mice", "setting": "M4Be human melanoma; EAPB0203 20 mg/kg twice per week i.p., FIG. 1", "value": "significant delay in tumour growth"}, {"measurement": "tumour volume of a remaining mouse when last fotemustine mice were euthanatized", "setting": "M4Be human melanoma; day 76, 20 mg/kg twice per week i.p.", "value": "less than 2 cm^3"}, {"measurement": "growth of ATL cells (HTLV-I-positive)", "setting": "[2]", "value": "sensitive; also recorded: progressive, dose-dependent inhibition"}, {"measurement": "growth of malignant T-cells not associated with HTLV-I", "setting": "[3]", "value": "sensitive; also recorded: progressive, dose-dependent inhibition"}]}]}
